pIC50: −log10 of the molar value. Converted amounts (≈) assume the structure as drawn. Where two headings read alike, the source gives them in different places.
Columns and labels:
fungal (fACC2) = fungal (fACC2) (UniProt Q00955); conditions: read-out: fACC2 (in vitro ACC2 Inhibition Assay, IC50), ADP-Glo, 5 nM ACC2, 20 μM ATP, 20 μM acetyl-CoA
human (hACC2) = human (hACC2) (Homo sapiens, UniProt O00763); test: In vitro ACC inhibition assay (ADP-Glo), hACC2; assay type: biochemical; conditions: 5 nM ACC2, 20 μM ATP, 20 μM acetyl-CoA
Method: The detailed procedure is as follows. […] 10 μL ADP glo reagent was added. […] 20 μL kinase detection reagent was added.

C. krusei = test: Antifungal Activity Assay (broth microtiter MIC), C. krusei; assay type: cell-based, Candida krusei; conditions: Pichia kudriavzevii, ATCC6258, 48 h, ATCC 6258, 3 replicates, MIC recorded at 48 h, read-out: MIC, C. krusei ATCC 6258
Method: (§1) Compounds of the present invention were evaluated in an Antifungal Activity Assay. An exemplary procedure for the assay, which measures the susceptibility of various Candida species to antifungal compounds, follows. Compounds to be tested (including fluconazole and amphotericin B) were dissolved in DMSO to obtain a solution having a concentration of 1 mg/mL. These stock solutions were sterile filtered using a 0.22 um nylon syringe filter, then diluted in sterile water to achieve a final concentration of 128 μg/mL.
(§2) All species were grown from frozen stock by directly plating on to freshly prepared Sabouraud Dextrose agar (BD, Difco) and incubated overnight in ambient air at 35° C. for 24 h. A direct suspension was prepared in RPMI 1640+MOPS (Lonza, Biowhittaker) by taking individual colonies from the overnight cultures using sterile swabs soaked in sterile saline. The concentration of the suspension was determined using pre-determined standard curves. These suspensions were then diluted down to 5×10^3 CFU/mL to achieve a final concentration of 2.5×10^3 CFU/mL once added to the microtiter plate as per CLSI guidelines (M27-A3, Vol. 28 No. 14).
(§3) Broth microtiter MIC challenge plates were prepared following CLSI guidelines (M27-A3, Vol. 28 No. 14). The original CLSI guidelines focused on reading Candida MICs after 48 h of incubation. As reading after only 24 h offers a clear advantage of patient care, QC limits are being established for all drugs at 24 h. That being said there are no known interpretive breakpoints for amphotericin B at 24 h and the current fluconazole interpretive breakpoints are based on a 48 h reading. The MICs for the test compounds were recorded at 48 h. All MIC determinations were achieved by visually comparing the growth found in the antibiotic challenged wells to that of the growth control.

C. albicans = test: Antifungal Activity Assay (broth microtiter MIC), C. albicans; assay type: cell-based, Candida albicans; conditions: Candida albicans, ATCC90028, 48 h, ATCC 90028, 3 replicates, MIC recorded at 48 h, read-out: MIC, C. albicans ATCC 90028
Method: as §1, §2, §3

C. parapsilosis = test: Antifungal Activity Assay (broth microtiter MIC), C. parapsilosis; assay type: cell-based, Candida parapsilosis; conditions: Lodderomyces parapsilosis, ATCC22019, 48 h, ATCC 22019, 3 replicates, MIC recorded at 48 h, read-out: MIC, C. parapsilosis ATCC 22019
Method: as §1, §2, §3

Sequence of fungal (fACC2) (Q00955 whole entry): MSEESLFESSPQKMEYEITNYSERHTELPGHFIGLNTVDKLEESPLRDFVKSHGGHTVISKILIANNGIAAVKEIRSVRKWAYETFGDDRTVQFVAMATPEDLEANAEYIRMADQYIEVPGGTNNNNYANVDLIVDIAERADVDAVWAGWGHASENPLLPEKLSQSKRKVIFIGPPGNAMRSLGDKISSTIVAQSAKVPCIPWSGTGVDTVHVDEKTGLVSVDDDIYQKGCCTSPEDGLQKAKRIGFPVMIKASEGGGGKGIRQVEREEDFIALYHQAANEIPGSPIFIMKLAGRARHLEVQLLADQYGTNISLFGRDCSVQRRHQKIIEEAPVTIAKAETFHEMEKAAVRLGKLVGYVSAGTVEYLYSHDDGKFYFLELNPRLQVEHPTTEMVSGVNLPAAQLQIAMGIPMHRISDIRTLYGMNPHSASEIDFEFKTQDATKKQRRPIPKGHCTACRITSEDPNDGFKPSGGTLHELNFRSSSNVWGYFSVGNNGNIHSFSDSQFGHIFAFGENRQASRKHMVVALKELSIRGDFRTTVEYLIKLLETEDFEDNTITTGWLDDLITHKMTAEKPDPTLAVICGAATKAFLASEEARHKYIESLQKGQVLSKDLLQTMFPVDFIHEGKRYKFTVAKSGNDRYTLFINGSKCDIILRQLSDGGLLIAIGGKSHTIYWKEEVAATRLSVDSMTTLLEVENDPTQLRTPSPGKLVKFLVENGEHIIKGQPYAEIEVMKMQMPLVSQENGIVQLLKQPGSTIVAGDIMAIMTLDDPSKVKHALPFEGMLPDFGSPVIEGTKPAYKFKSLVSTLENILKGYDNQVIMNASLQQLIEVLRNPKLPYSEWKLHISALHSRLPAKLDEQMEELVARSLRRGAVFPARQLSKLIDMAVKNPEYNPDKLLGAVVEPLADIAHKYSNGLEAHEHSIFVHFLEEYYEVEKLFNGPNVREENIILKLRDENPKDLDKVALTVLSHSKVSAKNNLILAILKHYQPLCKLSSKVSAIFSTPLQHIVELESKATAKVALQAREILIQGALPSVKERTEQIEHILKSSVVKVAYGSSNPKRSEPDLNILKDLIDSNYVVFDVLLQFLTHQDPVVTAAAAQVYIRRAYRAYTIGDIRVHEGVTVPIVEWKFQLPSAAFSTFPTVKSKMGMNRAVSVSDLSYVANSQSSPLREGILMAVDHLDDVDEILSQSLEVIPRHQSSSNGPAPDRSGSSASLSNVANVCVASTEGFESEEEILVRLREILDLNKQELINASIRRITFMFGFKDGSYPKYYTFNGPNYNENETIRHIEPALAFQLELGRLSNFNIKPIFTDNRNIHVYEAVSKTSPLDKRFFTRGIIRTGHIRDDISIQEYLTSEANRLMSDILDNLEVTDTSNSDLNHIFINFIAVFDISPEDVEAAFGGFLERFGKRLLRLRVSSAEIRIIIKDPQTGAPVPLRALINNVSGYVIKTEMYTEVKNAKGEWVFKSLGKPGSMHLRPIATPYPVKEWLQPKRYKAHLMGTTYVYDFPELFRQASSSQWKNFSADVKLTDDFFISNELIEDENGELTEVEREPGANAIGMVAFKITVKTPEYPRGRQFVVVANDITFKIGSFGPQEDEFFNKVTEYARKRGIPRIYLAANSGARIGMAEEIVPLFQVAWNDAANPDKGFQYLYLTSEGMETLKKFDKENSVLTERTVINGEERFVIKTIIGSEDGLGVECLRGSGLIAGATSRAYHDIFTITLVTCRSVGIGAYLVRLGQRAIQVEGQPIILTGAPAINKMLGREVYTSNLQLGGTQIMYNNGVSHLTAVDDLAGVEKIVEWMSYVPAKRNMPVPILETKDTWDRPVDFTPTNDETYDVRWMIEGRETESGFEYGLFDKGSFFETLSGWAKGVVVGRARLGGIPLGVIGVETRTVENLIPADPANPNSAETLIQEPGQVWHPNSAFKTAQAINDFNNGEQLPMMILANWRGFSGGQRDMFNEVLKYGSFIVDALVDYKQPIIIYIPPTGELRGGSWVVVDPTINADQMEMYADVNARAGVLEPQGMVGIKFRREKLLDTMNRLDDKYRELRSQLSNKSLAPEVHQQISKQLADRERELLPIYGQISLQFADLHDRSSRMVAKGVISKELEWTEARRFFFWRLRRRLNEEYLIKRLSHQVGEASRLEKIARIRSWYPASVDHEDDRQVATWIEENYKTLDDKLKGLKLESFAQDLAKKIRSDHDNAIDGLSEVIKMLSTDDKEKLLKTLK
Sequence of human (hACC2) (O00763 whole entry): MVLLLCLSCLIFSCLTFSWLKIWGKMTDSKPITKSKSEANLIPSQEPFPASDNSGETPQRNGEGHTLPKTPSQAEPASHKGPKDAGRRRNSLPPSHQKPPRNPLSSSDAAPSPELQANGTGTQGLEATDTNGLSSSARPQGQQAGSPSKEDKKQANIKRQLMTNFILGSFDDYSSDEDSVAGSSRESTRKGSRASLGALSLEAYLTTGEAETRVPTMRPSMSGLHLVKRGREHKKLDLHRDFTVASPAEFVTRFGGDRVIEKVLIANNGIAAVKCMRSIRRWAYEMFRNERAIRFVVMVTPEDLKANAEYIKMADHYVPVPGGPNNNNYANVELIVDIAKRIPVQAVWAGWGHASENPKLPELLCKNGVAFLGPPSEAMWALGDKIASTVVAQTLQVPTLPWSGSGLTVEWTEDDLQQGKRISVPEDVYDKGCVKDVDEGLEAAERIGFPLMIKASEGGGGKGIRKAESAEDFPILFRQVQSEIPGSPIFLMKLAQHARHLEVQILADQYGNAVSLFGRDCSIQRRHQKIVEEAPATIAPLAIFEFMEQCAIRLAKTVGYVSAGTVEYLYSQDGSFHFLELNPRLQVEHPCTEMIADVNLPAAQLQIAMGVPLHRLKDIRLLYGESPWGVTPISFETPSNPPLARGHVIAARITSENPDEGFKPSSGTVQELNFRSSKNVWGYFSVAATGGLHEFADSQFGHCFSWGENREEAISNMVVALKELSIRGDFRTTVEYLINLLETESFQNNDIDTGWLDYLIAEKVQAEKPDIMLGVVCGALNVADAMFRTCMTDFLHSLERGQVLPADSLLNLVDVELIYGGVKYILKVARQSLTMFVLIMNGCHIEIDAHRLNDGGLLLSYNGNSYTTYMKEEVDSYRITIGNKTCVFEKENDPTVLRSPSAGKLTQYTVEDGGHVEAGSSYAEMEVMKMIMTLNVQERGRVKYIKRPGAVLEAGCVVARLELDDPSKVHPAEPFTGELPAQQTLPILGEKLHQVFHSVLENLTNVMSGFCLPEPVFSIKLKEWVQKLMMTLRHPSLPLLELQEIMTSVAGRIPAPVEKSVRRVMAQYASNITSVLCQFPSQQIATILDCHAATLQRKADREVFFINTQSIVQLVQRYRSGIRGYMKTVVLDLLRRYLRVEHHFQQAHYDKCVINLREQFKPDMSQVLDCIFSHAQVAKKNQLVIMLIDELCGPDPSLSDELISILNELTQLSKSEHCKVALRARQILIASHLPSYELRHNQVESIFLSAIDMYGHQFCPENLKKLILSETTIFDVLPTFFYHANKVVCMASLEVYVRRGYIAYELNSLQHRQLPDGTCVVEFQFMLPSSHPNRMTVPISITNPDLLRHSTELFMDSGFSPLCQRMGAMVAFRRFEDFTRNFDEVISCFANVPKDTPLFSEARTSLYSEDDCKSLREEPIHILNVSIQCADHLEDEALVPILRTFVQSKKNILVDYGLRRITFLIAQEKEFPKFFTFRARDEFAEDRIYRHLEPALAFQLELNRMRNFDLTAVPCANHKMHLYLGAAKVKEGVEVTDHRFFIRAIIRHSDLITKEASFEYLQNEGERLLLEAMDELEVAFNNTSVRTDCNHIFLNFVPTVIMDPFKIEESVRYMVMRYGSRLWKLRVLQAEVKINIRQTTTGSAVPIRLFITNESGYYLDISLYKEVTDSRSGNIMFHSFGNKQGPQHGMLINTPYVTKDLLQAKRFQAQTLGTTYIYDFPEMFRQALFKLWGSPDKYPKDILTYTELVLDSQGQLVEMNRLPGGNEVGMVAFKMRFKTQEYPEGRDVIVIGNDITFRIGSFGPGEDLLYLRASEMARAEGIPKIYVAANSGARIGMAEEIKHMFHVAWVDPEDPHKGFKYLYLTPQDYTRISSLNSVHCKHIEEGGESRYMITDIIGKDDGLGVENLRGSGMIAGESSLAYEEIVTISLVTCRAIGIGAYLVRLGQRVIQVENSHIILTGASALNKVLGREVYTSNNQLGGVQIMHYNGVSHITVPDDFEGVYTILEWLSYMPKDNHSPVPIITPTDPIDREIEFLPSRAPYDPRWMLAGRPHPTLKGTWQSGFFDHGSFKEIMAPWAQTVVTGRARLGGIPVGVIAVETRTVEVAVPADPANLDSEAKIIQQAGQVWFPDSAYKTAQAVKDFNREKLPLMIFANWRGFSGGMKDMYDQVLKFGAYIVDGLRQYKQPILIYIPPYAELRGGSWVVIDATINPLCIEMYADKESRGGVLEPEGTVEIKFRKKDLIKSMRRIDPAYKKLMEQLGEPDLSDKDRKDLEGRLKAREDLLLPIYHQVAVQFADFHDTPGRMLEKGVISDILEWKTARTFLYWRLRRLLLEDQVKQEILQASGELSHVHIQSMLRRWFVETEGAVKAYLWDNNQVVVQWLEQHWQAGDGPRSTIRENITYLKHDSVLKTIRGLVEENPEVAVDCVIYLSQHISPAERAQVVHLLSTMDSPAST

Row | Structure (SMILES) | pIC50 (fungal (fACC2); Table 2a) | pIC50 (fungal (fACC2); Table 2b, additional results) | pIC50 (human (hACC2); Table 2a) | pIC50 (human (hACC2); Table 2b, additional results) | MIC (C. krusei; Table 3a) | MIC (C. krusei; Table 3b (additional results)) | MIC (C. albicans; Table 3a) | MIC (C. albicans; Table 3b (additional results)) | MIC (C. parapsilosis; Table 3a) | MIC (C. parapsilosis; Table 3b (additional results))
1 | COc1ccc(F)cc1[C@H](Cn1c(=O)n(C(C)(C)C(=O)N2CC=CC2)c(=O)c2c(C)c(-n3nccn3)sc21)OCC(C)O (stereo partly shown) [Compound I-121] | 8.30 to 9.00 | 8.30 to 9.00 | 8.30 to 9.00 | 8.30 to 9.00 | 0.25 to 1 µg/mL (≈ 0.408 to 1.63 µM) | > 4.01 µg/mL | 1.1 to 2 µg/mL (≈ 1.8 to 3.26 µM) | 1.01 to 2 µg/mL (≈ 1.65 to 3.26 µM) | 1.1 to 2 µg/mL (≈ 1.8 to 3.26 µM) | 2.01 to 4 µg/mL (≈ 3.28 to 6.53 µM)
2 | COCCOc1ccc(F)cc1[C@H](Cn1c(=O)n(C(C)(C)C(=O)NC(C)C)c(=O)c2c(C)c(-n3nccn3)sc21)OCCOC [Compound I-122] | 8.30 to 9.00 | 8.30 to 9.00 | 7.40 to 8.00 | 7.40 to 8.00 | 0.25 to 1 µg/mL (≈ 0.387 to 1.55 µM) | 1.01 to 2 µg/mL (≈ 1.56 to 3.09 µM) | 2.1 to 4 µg/mL (≈ 3.25 to 6.18 µM) | 2.01 to 4 µg/mL (≈ 3.11 to 6.18 µM) | 1.1 to 2 µg/mL (≈ 1.7 to 3.09 µM) | 1.01 to 2 µg/mL (≈ 1.56 to 3.09 µM)
3 | COc1ccc(F)cc1[C@H](Cn1c(=O)n(C(C)(C)C(N)=O)c(=O)c2c(C)c(-n3nccn3)sc21)OCCC(=O)C(F)(F)F [Compound I-123] | 8.30 to 9.00 | 8.30 to 9.00 | 7.40 to 8.00 | 7.40 to 8.00 | 1.1 to 2 µg/mL (≈ 1.76 to 3.19 µM) | > 4.01 µg/mL | 2.1 to 4 µg/mL (≈ 3.35 to 6.38 µM) | > 4.01 µg/mL | 2.1 to 4 µg/mL (≈ 3.35 to 6.38 µM) | > 4.01 µg/mL
4 | CCc1ccc(F)cc1[C@H](Cn1c(=O)n(C(C)(C)C(=O)O)c(=O)c2c(C)c(-n3nccn3)sc21)OCCO [Compound I-125] | 8.30 to 9.00 | 9.00 to 9.52 | 8.30 to 9.00 | 8.30 to 9.00 | 2.1 to 4 µg/mL (≈ 3.85 to 7.33 µM) | > 4.01 µg/mL | 2.1 to 4 µg/mL (≈ 3.85 to 7.33 µM) | > 4.01 µg/mL | 2.1 to 4 µg/mL (≈ 3.85 to 7.33 µM) | > 4.01 µg/mL
5 | COCCO[C@@H](Cn1c(=O)n(C(C)(C)C(=O)OC(C)C)c(=O)c2c(C)c(-n3nccn3)sc21)c1cc(F)ccc1OC [Compound I-127] | 8.30 to 9.00 | 8.30 to 9.00 | 7.40 to 8.00 | 7.40 to 8.00 | 0.25 to 1 µg/mL (≈ 0.414 to 1.66 µM) | 2.01 to 4 µg/mL (≈ 3.33 to 6.63 µM) | 1.1 to 2 µg/mL (≈ 1.82 to 3.31 µM) | 2.01 to 4 µg/mL (≈ 3.33 to 6.63 µM) | 1.1 to 2 µg/mL (≈ 1.82 to 3.31 µM) | > 4.01 µg/mL
6 | COCCO[C@@H](Cn1c(=O)n(C(C)(C)C(=O)OC2CCC2)c(=O)c2c(C)c(-n3nccn3)sc21)c1cc(F)ccc1OC [Compound I-128] | 8.30 to 9.00 | 8.30 to 9.00 | 7.40 to 8.00 | 7.40 to 8.00 | 1.1 to 2 µg/mL (≈ 1.79 to 3.25 µM) | 2.01 to 4 µg/mL (≈ 3.26 to 6.5 µM) | 2.1 to 4 µg/mL (≈ 3.41 to 6.5 µM) | > 4.01 µg/mL | 2.1 to 4 µg/mL (≈ 3.41 to 6.5 µM) | 2.01 to 4 µg/mL (≈ 3.26 to 6.5 µM)
7 | COc1ccc(F)cc1[C@H](Cn1c(=O)n(C(C)(C)C(=O)OC(C)C)c(=O)c2c(C)c(-n3nccn3)sc21)OCCO [Compound I-129] | 8.30 to 9.00 | 8.30 to 9.00 | 8.30 to 9.00 | 8.30 to 9.00 | 0.25 to 1 µg/mL (≈ 0.424 to 1.7 µM) | 0.25 to 1 µg/mL (≈ 0.424 to 1.7 µM) | 1.1 to 2 µg/mL (≈ 1.87 to 3.39 µM) | 1.01 to 2 µg/mL (≈ 1.71 to 3.39 µM) | 0.25 to 1 µg/mL (≈ 0.424 to 1.7 µM) | > 4.01 µg/mL

Reference: patent publication US10800791B2, “Triazole ACC inhibitors and uses thereof” (Gilead Apollo, LLC, priority 2015, dated 2020)
